Laboratory results as given in paper PMC10065799, “High-throughput profiling of sequence recognition by tyrosine kinases and SH2 domains using bacterial peptide display” (eLife, 2023).

What was measured:
c-Src kinase domain [1] = target: T1, c-Src kinase domain (Homo sapiens, UniProt P12931); experiment: RP-HPLC assay to measure peptide phosphorylation kinetics; assay type: biochemical; conditions: purified peptide substrate
c-Abl kinase domain [2] = target: T2, c-Abl kinase domain (Mus musculus, UniProt P00520); experiment: ADP-Quest continuous fluorimetric kinase assay (Michaelis-Menten parameters and initial rates); assay type: biochemical; conditions: c-Abl kinase domain 10 nM, 100 μM ATP, 37 °C, three to five replicates, error = standard error of global Michaelis-Menten fit
T2 sequence (P00520 242-493 limits assumed): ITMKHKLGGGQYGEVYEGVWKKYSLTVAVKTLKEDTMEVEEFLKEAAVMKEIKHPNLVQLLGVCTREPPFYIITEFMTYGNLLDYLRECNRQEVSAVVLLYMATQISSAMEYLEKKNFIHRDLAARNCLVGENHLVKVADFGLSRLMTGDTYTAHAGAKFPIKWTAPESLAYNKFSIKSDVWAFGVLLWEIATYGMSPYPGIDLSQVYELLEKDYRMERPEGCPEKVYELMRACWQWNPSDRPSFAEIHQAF
Text: A fluorescence-based assay from Eurofins (ADP Quest) was used to measure the Michaelis-Menten kinetic parameters for phosphorylation of the consensus peptides by purified tyrosine kinase domains. In this assay, ADP production as a result of kinase activity is coupled to the production of resorufin, a fluorophore that emits signal at 590 nm. For all experiments, the assay reactions were set up as described in the provided assay kit protocol, in a 384 well plate format. The peptide solutions were serially diluted in 100 mM Tris, pH 8.0, and the kinases were diluted to 50 nM in buffer (10 mM HEPES, 100 mM NaCl, 1 mM TCEP, 5 mM MgCl2, 10% (v/v) glycerol). The final reaction mixtures contained 10 nM of kinase with 100 μM of ATP. […] Phosphorylation reaction progress was monitored by measuring fluorescence at excitation 530 nm and emission 590 nm every 2 min at 37 °C on a plate reader (BioTek Synergy Neo 2). The fluorescence units (RFU) were converted to μM ADP by comparison to a standard curve, and the initial rates were extracted from the linear regime of the reaction progress curves. Initial rates were also measured for samples containing each kinase but lacking a peptide substrate, to account for background ATP hydrolysis. This background rate was subtracted from the rates measured in the presence of peptide. […]

c-Src kinase domain [3] = target: T1, c-Src kinase domain; experiment: pTyr-Var library bacterial peptide display kinase screen (enrichment scores); assay type: biochemical; conditions: for Screen: sheet "Src";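 for c-Abl hit?: Hit requires p below 0.05 and at least twofold variant vs reference change plus filters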;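 for c-Src hit?: Hit requires p below 0.05 and at least twofold variant vs reference change plus filters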
Grb2 SH2 domain = experiment: pTyr-Var library SH2 domain screen with SH2-dynabeads (enrichment scores)
c-Src SH2 domain = c-Src SH2 domain (Homo sapiens, UniProt P12931); experiment: as above; conditions: sheet c-Src
c-Abl kinase domain [4] = target: T2, c-Abl kinase domain; experiment: pTyr-Var library bacterial peptide display kinase screen (enrichment scores); assay type: biochemical; conditions: for Screen: fig5-data2, sheet "Abl", Screen for the variant/reference peptide pair;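 for c-Abl hit?: Hit requires p below 0.05 and at least twofold variant vs reference change plus filters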;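 for c-Src hit?: Hit requires p below 0.05 and at least twofold variant vs reference change plus filters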
Hck kinase domain = experiment: as above; assay type: biochemical, human
SHP2 C-SH2 domain = experiment: pTyr-Var library SH2 domain screen with SH2-dynabeads (enrichment scores)
EPHB2 kinase domain = experiment: pTyr-Var library bacterial peptide display kinase screen (enrichment scores); assay type: biochemical, human; conditions: for Screen: sheet EPHB2, effect of variant peptide relative to its reference peptide in the pTyr-Var library screen (enrichment scores);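 for screen: log2 fold change in enrichment of variant over reference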
Fes = experiment: as above; assay type: biochemical
MERTK kinase domain = experiment: as above; assay type: biochemical, human
AncSZ kinase domain = experiment: as above; assay type: biochemical
Fyn kinase domain = experiment: as above; assay type: biochemical, human
FGFR1 kinase domain = experiment: as above; assay type: biochemical, human
FGFR3 kinase domain = experiment: as above; assay type: biochemical, human
Fer kinase domain = experiment: as above; assay type: biochemical, mouse; conditions: for Screen: sheet "Fer"
Jak2 = experiment: as above; assay type: biochemical, human
EPHB1 kinase domain = experiment: as above; assay type: biochemical, human; conditions: for Screen: sheet EPHB1, effect of the variant peptide relative to its reference peptide in the pTyr-Var library screen (enrichment scores)
[5] = target: human c-Src kinase domain (residues 260-528) (human) (UniProt P12931)
[6] = effect of the variant peptide relative to its reference peptide in the pTyr-Var library screen
[7] = mean of log2(variant) minus mean of log2(reference)
[8] = mean of log2 of enrichment over R1-R4
[9] = pTyr-Var library, enrichment score, replicate 1
[10] = pTyr-Var library, enrichment score, replicate 3
[11] = pTyr-Var library, enrichment score, replicate 4
[12] = variant versus reference peptide, significant hit TRUE/FALSE
[13] = variant versus reference peptide
[14] = mean of log2 enrichment of variant peptide, n = 4
[15] = mean of log2 enrichment of variant peptide, n = 5
[16] = value of the variant peptide against its reference peptide in the pTyr-Var library screen with Fer

Ac-AGQEKYSAMRD-NH2 [HRAS-Y64-E63K]
Phosphorylation Rate (c-Src kinase domain [1]): 0.027 s⁻¹

Ac-GAPEVIYATPGAKKKG-NH2 [AblTide (2014), previously reported c-Abl consensus substrate]
Km (c-Abl kinase domain [2]): 35 ± 8 µM | kcat (c-Abl kinase domain [2]): 2.5±0.2 s^–1

Ac-GPDEPIYDMFPFKKKG-NH2 [Src Consensus (C-2P), Src Consensus variant with –2 Pro]
Phosphorylation Rate (c-Src kinase domain [1]): 12.667 s⁻¹

Ac-GPDESIYDMFPFKKKG-NH2 [Src Consensus (C-2S), Src Consensus variant with –2 Ser]
Phosphorylation Rate (c-Src kinase domain [1]): 5.171 s⁻¹

Ac-LERFIYNREEL-NH2 [HLA-DPB1_Y59_F64L_YF, pTyr-Var library variant peptide, non-canonical c-Src substrate]
Phosphorylation Rate (c-Src kinase domain [1]): 0.258 s⁻¹ | Screen (c-Src kinase domain [3]; [6]): 0.2529

Ac-WDLSEYSFKDP-NH2 [ITGA3_Y237_YF]
Phosphorylation Rate (c-Src kinase domain [1]): 0.555 s⁻¹

DRVALYVAREG [AACS_Y117_I118V]
difference (Grb2 SH2 domain; Grb2 SH2, mean of log2(variant) minus mean of log2(reference)): -0.1132 | mean of log2(variant) (Grb2 SH2 domain; Grb2 SH2, mean of log2 enrichment of variant, R1-R3): -0.29 | hit? (Grb2 SH2 domain; Grb2 SH2, variant versus reference significant hit call): FALSE | difference (c-Src SH2 domain; [7]): -0.4301 | mean of log2(variant) (c-Src SH2 domain; mean of log2 enrichment of variant peptide, R1-R3): -1.56 | c-Abl mean of log2(enrichment) (c-Abl kinase domain [4]; [8]): -0.7858 | c-Abl enrich. R1 (c-Abl kinase domain [4]; [9]): 0.555 | c-Abl enrich. R3 (c-Abl kinase domain [4]; [10]): 0.7635 | c-Abl enrich. R4 (c-Abl kinase domain [4]; [11]): 0.4657 | c-Abl hit? (c-Abl kinase domain [4]; [12]): FALSE | Hck mean of log2(enrichment) (Hck kinase domain; mean of log2(variant) / mean of log2(reference), R1-R4): 0.6801 | Hck enrich. R1 (Hck kinase domain; [9]): 1.248 | Hck enrich. R3 (Hck kinase domain; [10]): 0.3794 | Hck enrich. R4 (Hck kinase domain; [11]): 0.204 | Hck difference (variant - reference) (Hck kinase domain; [13]): 0.1112 | Hck hit? (Hck kinase domain; [12]): FALSE | difference (SHP2 C-SH2 domain; SHP2-C SH2, mean of log2(variant) minus mean of log2(reference)): -0.5364 | mean of log2(variant) (SHP2 C-SH2 domain; SHP2-C SH2, mean of log2 enrichment of variant, R1-R3): -0.6877 | hit? (SHP2 C-SH2 domain; SHP2-C SH2, variant versus reference significant hit call): FALSE | difference (EPHB2 kinase domain; [7]): 0.3459 | mean of log2(variant) (EPHB2 kinase domain; [14]): -0.6512 | Fes mean of log2(enrichment) (Fes; mean of log2 of enrichment over R1-R6): -0.04177 | Fes difference (mean log2 variant - mean log2 reference) (Fes; [13]): -0.2234 | c-Src mean of log2(enrichment) (c-Src kinase domain [3]; [8]): -1.464 | c-Src enrich. R1 (c-Src kinase domain [3]; [9]): 0.3697 | c-Src enrich. R3 (c-Src kinase domain [3]; [10]): 0.2802 | c-Src enrich. R4 (c-Src kinase domain [3]; [11]): 0.4218 | c-Src difference (mean log2 variant - mean log2 reference) (c-Src kinase domain [3]; [13]): -0.2397 | c-Src hit? (c-Src kinase domain [3]; [12]): FALSE | difference (MERTK kinase domain; [7]): -0.4526 | mean of log2(variant) (MERTK kinase domain; [14]): -1.84 | AncSZ mean of log2(enrichment) (AncSZ kinase domain; mean of log2 of enrichment over R1-R5): -0.4041 | AncSZ enrich. R1 (AncSZ kinase domain; [9]): 1.153 | AncSZ enrich. R3 (AncSZ kinase domain; [10]): 0.7411 | AncSZ enrich. R4 (AncSZ kinase domain; [11]): 0.5554 | AncSZ enrich. R5 (AncSZ kinase domain; pTyr-Var library, enrichment score, replicate 5): 0.4897 | AncSZ difference (mean log2 variant - mean log2 reference) (AncSZ kinase domain; [13]): -0.326 | AncSZ hit? (AncSZ kinase domain; [12]): FALSE | Fyn mean of log2(enrichment) (Fyn kinase domain; [8]): -1.274 | Fyn enrich. R1 (Fyn kinase domain; [9]): 0.7923 | Fyn enrich. R3 (Fyn kinase domain; [10]): 0.2683 | Fyn enrich. R4 (Fyn kinase domain; [11]): 0.2456 | Fyn difference (mean log2 variant - mean log2 reference) (Fyn kinase domain; [13]): 0.04124 | Fyn hit? (Fyn kinase domain; [12]): FALSE | difference (FGFR1 kinase domain; [7]): -0.08555 | mean of log2(variant) (FGFR1 kinase domain; [15]): -1.047 | difference (FGFR3 kinase domain; [7]): -0.06288 | mean of log2(variant) (FGFR3 kinase domain; [15]): -0.601 | Fer mean of log2(enrichment) (Fer kinase domain; [8]): -1.031 | Fer enrich. R1 (Fer kinase domain; [9]): 0.6342 | Fer enrich. R3 (Fer kinase domain; [10]): 0.3786 | Fer enrich. R4 (Fer kinase domain; [11]): 0.4545 | Fer difference (mean log2 variant - mean log2 reference) (Fer kinase domain; [13]): 0.05113 | Fer hit? (Fer kinase domain; [12]): FALSE | Jak2 mean of log2(enrichment) (Jak2; mean of log2 of enrichment over R1-R3): -0.2901 | Jak2 enrich. R1 (Jak2; [9]): 0.73 | Jak2 enrich. R3 (Jak2; [10]): 0.9423 | Jak2 difference (mean log2 variant - mean log2 reference) (Jak2; [13]): -0.3116 | Jak2 hit? (Jak2; [12]): FALSE | difference (EPHB1 kinase domain; [7]): -0.2676 | mean of log2(variant) (EPHB1 kinase domain; [14]): -0.8888

HNLPIYEGFAL [ACTA1_Y168_V165L_YF]
Screen (c-Abl kinase domain [4]; pTyr-Var library): 0.278 | Screen (EPHB2 kinase domain): -0.1826 | Screen (c-Src kinase domain [3]; [6]): -0.1626 | Screen (Fer kinase domain; [16]): -0.04484 | Screen (EPHB1 kinase domain): -0.3324

RNEAFYDTFST [EFCAB3_Y372_S370A]
Screen (c-Abl kinase domain [4]; pTyr-Var library): 0.8648 | Screen (EPHB2 kinase domain): -2.77 | Screen (c-Src kinase domain [3]; [6]): -0.05343 | Screen (Fer kinase domain; [16]): -0.7665 | Screen (EPHB1 kinase domain): -3.139

RWQQLYDTLNA [EIF3M_Y351_Q346R]
Screen (EPHB2 kinase domain): 0.365 | Screen (c-Src kinase domain [3]; [6]): -0.1 | Screen (Fer kinase domain; [16]): -0.4426 | Screen (EPHB1 kinase domain): -0.05321

TLSGIYQFSIA [FOXL2_Y81_I84S_YF]
Screen (EPHB2 kinase domain): -3.18 | Screen (c-Src kinase domain [3]; [6]): -0.1944 | Screen (Fer kinase domain; [16]): -1.302 | Screen (EPHB1 kinase domain): -3.13

VFLGAYDCFLP [SLC22A5_Y486_R488C_YF]
Screen (EPHB2 kinase domain): 1.473 | Screen (c-Src kinase domain [3]; variant peptide versus its reference peptide in the pTyr-Var library screen): 0.189 | Screen (Fer kinase domain; variant peptide relative to its reference peptide, pTyr-Var library screen enrichment): 1.979 | Screen (variant relative to reference peptide, measured in the pTyr-Var library screen) (EPHB1 kinase domain; sheet "EPHB1", variant seq vs reference seq, bacterial peptide display enrichment): 1.419

Ac-GAEEEIYGIFGAKKKG-NH2 [SrcTide (2014) peptide Ac-…-NH2]
KM (μM) of phosphorylation, Michaelis-Menten analysis, ADP-Quest assay [5]: 7 µM

Ac-GAEEEIYGEFEAKKKG-NH2 [SrcTide (1995) peptide Ac-…-NH2]
KM (μM) of phosphorylation, Michaelis-Menten analysis, ADP-Quest assay [5]: 64 µM
